Laboratory results reported in article PMC2844711 (The Journal of neuroscience : the official journal of the …, 2010).

Target: GluA4 (Rattus norvegicus, UniProt P19493, L505Y/L672V)
Assay: whole-cell patch clamp in tsA201 cells, agonist dose-response
Type: cell-based

Sequence of GluA4 (P19493 21-902 L505Y/L672V): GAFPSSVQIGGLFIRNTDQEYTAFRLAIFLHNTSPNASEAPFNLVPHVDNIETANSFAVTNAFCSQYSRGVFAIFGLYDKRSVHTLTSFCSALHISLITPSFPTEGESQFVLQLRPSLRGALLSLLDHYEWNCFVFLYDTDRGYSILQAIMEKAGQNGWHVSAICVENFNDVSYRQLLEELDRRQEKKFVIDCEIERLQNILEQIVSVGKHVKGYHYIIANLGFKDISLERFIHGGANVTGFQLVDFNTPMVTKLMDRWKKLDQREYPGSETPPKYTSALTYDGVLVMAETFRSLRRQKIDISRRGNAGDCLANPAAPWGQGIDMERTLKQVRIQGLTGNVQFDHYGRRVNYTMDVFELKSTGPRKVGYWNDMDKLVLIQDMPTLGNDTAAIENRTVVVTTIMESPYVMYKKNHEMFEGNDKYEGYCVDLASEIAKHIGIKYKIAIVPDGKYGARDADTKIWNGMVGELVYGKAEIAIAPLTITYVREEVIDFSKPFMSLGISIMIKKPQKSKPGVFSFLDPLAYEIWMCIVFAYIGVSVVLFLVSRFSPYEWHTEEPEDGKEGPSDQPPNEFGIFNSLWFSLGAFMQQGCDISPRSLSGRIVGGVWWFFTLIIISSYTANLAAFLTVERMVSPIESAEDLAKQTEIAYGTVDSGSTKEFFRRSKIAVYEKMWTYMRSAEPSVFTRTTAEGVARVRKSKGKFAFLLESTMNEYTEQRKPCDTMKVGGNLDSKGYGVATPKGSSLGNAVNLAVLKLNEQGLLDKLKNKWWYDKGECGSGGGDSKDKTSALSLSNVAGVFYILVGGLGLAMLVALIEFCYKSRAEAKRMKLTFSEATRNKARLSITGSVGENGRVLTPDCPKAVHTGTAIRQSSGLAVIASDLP

## C=C(C)[C@H]1CN[C@H](C(=O)O)[C@H]1CC(=O)O [KA, kainate]
  EC50: 324 ± 35 µM
